Measurements as given in patent US20130210846A1, “USE OF NOVEL PAN-CDK INHIBITORS FOR TREATING TUMORS” (BAYER INTELLECTUAL PROPERTY GMBH, priority 2010, published 2013).

What was measured:
[1] = system: NCI-H146 human small-cell lung tumor cells; test: NCI-H146 human small-cell lung tumor model; type: in vivo, female NMRI nude mice
Text: (§1) Tumor cells grown in cell culture were implanted subcutaneously in the flank of female or male NMRI nude mice. The treatment was started as soon as the tumors had grown to a size of approx. 20 mm^2 The study was ended as soon as the tumors in one of the groups reached a size of approx. 150 mm^2.
(§2) Vehicle group: treatment with solubilizer (40% PEG400/60% water)
(§3) The studies were designed for determining the initial response of the human tumor model to the treatment with the Exemplary compound 2-SI-2. Tumor growth inhibition in percent (TGI) was either calculated at the end of the studies from the tumor weights (TGITW) using the formula 100×[1−(tumor weight of the treatment group/tumor weight of the vehicle group)], or on the day the vehicle group had to be ended from the tumor areas (TGITA) using the formula 100×[1−(tumor area of the treatment group on the day of the measurement−tumor area of the treatment group prior to treatment)/(tumor area of the vehicle group on the day of the measurement−tumor area of the vehicle group prior to treatment)]. In the case of a tumor growth inhibition of more than 50%, the treatment was considered to have been effective.
Efficacy in the NCI-H146 human small-cell lung tumor model.
NCI-H146 human small-cell lung tumor cells implanted into female NMRI nude mice. […]

[2] = system: NCI-H526 human small-cell lung tumor cells; test: NCI-H526 human small-cell lung tumor model; type: in vivo, female NMRI nude mice
Text: as §1, §2, §3
Efficacy in the NCI-H526 human small-cell lung tumor model.
NCI-H526 human small-cell lung tumor cells implanted into female NMRI nude mice.
• a) 0.20 mg/ml of Example 2-SI-2 in 40% (v/v) PEG 400 in water • b) 0.20 mg/ml of Example 2-SI-2 in 40% (v/v) PEG 400 in water • c) 0.15 mg/ml of Example 2-SI-2 in 40% (v/v) PEG 400 in water • d) 0.17 mg/ml of Example 2-SI-2 in 40% (v/v) PEG 400 in water
• a) 2.0 mg/kg (6.0 mg/m^2), 1× per day. • b) 2.0 mg/kg (6.0 mg/m^2), 2× per day on 2 successive days, followed by 5 treatment-free days. • c) 1.5 mg/kg (4.5 mg/m^2), 2× per day on 3 successive days, followed by 4 treatment-free days. • d) 1.7 mg/kg (5.1 mg/m^2), 2× per day on 3 successive days, followed by 4 treatment-free days.

[3] = system: A2780-Cis cisplatin-resistant human ovarial tumor cells; test: A2780-Cis human ovarial tumor model; type: in vivo, female NMRI nude mice
Text: as §1, §2, §3
Efficacy in the A2780-Cis human ovarial tumor model.
Efficacy in the A2780-Cis human ovarial tumor model A2780-Cis cisplatin-resistant human ovarial tumor cells implanted into female NMRI nude mice.
• a) 0.20 mg/ml of Example 2-SI-2 in 40% (v/v) PEG 400 in water • b) 0.15 mg/ml of Example 2-SI-2 in 40% (v/v) PEG 400 in water • c) 0.17 mg/ml of Example 2-SI-2 in 40% (v/v) PEG 400 in water
• a) 2.0 mg/kg (6.0 mg/m^2), 1× per day. • b) 1.5 mg/kg (4.5 mg/m^2), 2× per day on 3 successive days, followed by 4 treatment-free days. • c) 1.7 mg/kg (5.1 mg/m^2), 2× per day on 3 successive days, followed by 4 treatment-free days.

[4] = system: MDA-MB 231; test: Proliferation assay MDA-MB 231; type: cell-based; details: Homo sapiens, 96 h; MDA-MB 231, estrogen receptor-negative mamma carcinoma; 4 days, crystal violet
Protocol: (§4) Cultivated human tumor cells (originally obtained from ATCC, HeLa-MaTu and HeLa-MaTu-ADR, originally obtained from Epo GmbH, Berlin, Germany) were plated at a density of 1000 to 5000 cells/measuring point, depending on the growth rate of the cell line, in a 96-well multititer plate in 200 μl of growth medium (DMEM/HAMS F12, 2 mM L-glutamine, 10% fetal calf serum). After 24 hours the cells of one plate (zero-point plate) were stained with crystal violet (see below), whereas the medium of the other plates was replaced with fresh culture medium (200 μl), to which the test substances had been added at various concentrations (0 μM, and in the range 0.01-30 μM; the final concentration of the solvent dimethyl sulfoxide was 0.5%). The cells were incubated for 4 days in the presence of the test substances. Cellular proliferation was determined by staining the cells with crystal violet: the cells were fixed by adding 20 μl/measuring point of an 11% glutaraldehyde solution for 15 min at room temperature. […] The extinction was determined photometrically at a wavelength of 595 nm. The percentage change in cell growth was calculated by standardization of the measured values to the extinction values of the zero-point plate (=0%) and the extinction of the untreated (0 μM) cells (=100%). […] The IC50 values were determined by means of a 4-parameter fit using the company's own software. […]

[5] = system: A375; test: Proliferation assay A375; type: cell-based; details: Homo sapiens, A-375, 96 h; A375, skin: melanoma; 4 days, crystal violet
Protocol: as §4

For `C[C@@H](O)[C@@H](C)Oc1nc(Nc2ccc(S(C)(=N)=O)cc2)ncc1C(F)(F)F` (mixture of isomers) [Example 2-SI-2, (RS)—S-(4-{[4-{[(1R,2R)-2-Hydroxy-1-methylpropyl]oxy}-5-(trifluoromethyl)pyrimidin-2-yl]-amino}phenyl)-S-methylsulfoximide], which “TGITW (tumor growth inhibition from tumor weights)” value ([1]; NCI-H146; a) 2.0 mg/kg oral 1× per day) is on record?
Its value is 95%.

And the “TGITW (tumor growth inhibition from tumor weights)” value ([1]; NCI-H146; b) 2.0 mg/kg oral 2× per day on 2 successive days, followed by 5 treatment-free days)?
The value was 82%.

What about the “TGITW (tumor growth inhibition from tumor weights)” value ([2]; NCI-H526; a) 2.0 mg/kg oral 1× per day) of the same molecule?
The value was 98%.

And the “TGITW (tumor growth inhibition from tumor weights)” value ([2]; NCI-H526; b) 2.0 mg/kg oral 2× per day on 2 successive days, followed by 5 treatment-free days)?
Its value is 72%.

And the “TGITW (tumor growth inhibition from tumor weights)” value ([2]; NCI-H526; c) 1.5 mg/kg oral 2× per day on 3 successive days, followed by 4 treatment-free days)?
The value was 79%.

What about the “TGITW (tumor growth inhibition from tumor weights)” value ([2]; NCI-H526; d) 1.7 mg/kg oral 2× per day on 3 successive days, followed by 4 treatment-free days) of the same molecule?
The value was 88%.

What about the “TGITW (tumor growth inhibition from tumor weights)” value ([3]; A2780-Cis; a) 2.0 mg/kg oral 1× per day) of the same molecule?
The value was 85%.

And the “TGITW (tumor growth inhibition from tumor weights)” value ([3]; A2780-Cis; b) 1.5 mg/kg oral 2× per day on 3 successive days, followed by 4 treatment-free days)?
Its value is 88%.

What about the “TGITW (tumor growth inhibition from tumor weights)” value ([3]; A2780-Cis; c) 1.7 mg/kg oral 2× per day on 3 successive days, followed by 4 treatment-free days) of the same molecule?
The value was 92%.

`C[C@@H](O)[C@@H](C)Oc1nc(Nc2ccc(S(C)(=N)=O)cc2)ncc1C(F)(F)F` (single isomer, unassigned) [Example 2-SI-2] was tested. Which IC50 [4] did it give?
Its IC50 is 16 nM.

And the IC50 [5]?
The IC50 was 15 nM.
